Laboratory results: article PMC6268222, “Inhibitory Effects of Resveratrol Analogs on Mushroom Tyrosinase Activity” (Molecules, 2012)
≈ marks a conversion by molar mass, not a printed value.

What was measured:
mushroom tyrosinase = mushroom tyrosinase (Agaricus bisporus, UniProt C7FF04); test: Tyrosinase inhibition qualitative enzymatic reaction screening; format: biochemical; settings: second hour of assay; p > 0.05
Procedure: The ability to inhibit the activity of tyrosinase enzyme was evaluated using the enzymatic method described by Macrini et al., with modifications. This method relies on the inhibition of tyrosinase in the presence of its substrate tyrosine, interrupting the synthesis of melanin.
Aliquots (10 µL) of a solution composed of 125 U/mL of mushroom tyrosinase (Sigma-Aldrich, St. Louis, MO, USA) were added to 96-well microplates, and then pH 6.8 phosphate buffer solution (70 µL) and the analogs (60 µL, 350 µg/mL, in 2.5% DMSO) were also added. […] To the resultant mixture, L-tyrosine (70 µL, Sigma-Aldrich) at a concentration of 0.3 mg/mL in distilled water was added (final volume in the wells = 210 µL). The absorbances of the microplate wells were read on a spectrophotometric microplate reader (SpectraCount, Packard, Meriden, CT, USA) at 510 nm (T0). Then, the microplates were incubated at 30 ± 1 °C for 60 minutes and the absorbances were registered again (T1). An additional incubation for 60 minutes at 30 ± 1 °C was done and after this period a new spectrophotometric reading was conducted (T2). The inhibitory percentage at the two times (T1 and T2) was obtained according to the formula to inhibitory activity percentage as follows: [drawing 9] (1) Where IC% = inhibitory activity; C = negative control absorbance; S = sample or positive control absorbance (absorbance at time T1 or T2 minus the absorbance at time T0).

tyrosinase = molecular target: tyrosinase; design: method as in earlier work; settings: ref 13 (Bernard and Berthon); cited from earlier work
[1] = system: B16-F10 murine melanoma cells; design: method as in PMID 22189272; settings: cited from earlier work

mushroom tyrosinase, sequence (C7FF04 1-392): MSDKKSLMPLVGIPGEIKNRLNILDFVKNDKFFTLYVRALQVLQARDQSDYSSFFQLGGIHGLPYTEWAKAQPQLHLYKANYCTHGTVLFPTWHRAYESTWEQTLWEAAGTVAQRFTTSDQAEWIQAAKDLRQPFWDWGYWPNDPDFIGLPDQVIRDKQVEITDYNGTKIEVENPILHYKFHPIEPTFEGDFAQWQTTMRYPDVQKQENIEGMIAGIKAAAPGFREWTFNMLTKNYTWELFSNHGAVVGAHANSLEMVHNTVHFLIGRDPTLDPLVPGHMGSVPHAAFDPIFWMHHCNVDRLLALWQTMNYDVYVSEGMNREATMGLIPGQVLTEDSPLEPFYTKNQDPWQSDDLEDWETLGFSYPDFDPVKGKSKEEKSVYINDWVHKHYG

SMILES | melting point | inhibitory ability compared with kojic acid (mushroom tyrosinase) | also measured
O=[N+]([O-])c1ccc(/C=N/c2ccccc2)cc1 [Analog C] | 89.6 to 90.7 °C |  | 
Oc1ccc(/C=N/c2ccccc2)cc1 [Analog D] |  | statistically equal to that of kojic acid | 
Oc1ccccc1/C=N/c1ccccc1 [Analog E] |  | statistically equal to that of kojic acid | 
COc1cc(/C=N/c2ccccc2)ccc1O [Analog F] | 53.1 to 54.2 °C | statistically equal to that of kojic acid | 
Oc1ccc(/C=C/c2cc(O)cc(O)c2)cc1 [resveratrol, Resveratrol] |  |  | IC50 (tyrosinase inhibition) (tyrosinase): 57.05 µg/mL (≈ 250 µM); cellular melanin production [1]: significantly suppressed; cytotoxicity (concentration without any cytotoxicity) [1]: > 200 µM
